Entries after “also recorded” stand apart in the source; their conditions may differ.
Columns and labels:
E. coli BL21(DE3) = assay: CFU determination, toxicity of liquid cation exchangers (Example 2); details: for Number of CFUs after 22 or 24 h relative to t = 0 h: Escherichia coli
Text: 50% DEHPA or lauric acid (15%), in each case dissolved in LAME and with equimolar or 25 mol % loading with ALAME, as liquid cation exchanger, was contacted with an E. coli BL21 (DE3) strain and the influence of these two compounds on the strain's ability to form colonies, expressed in CFUs, was investigated.

E. coli W3110 [1] = details: Test 2, culture covered with equal volume of solvent
Description: First a preculture comprising 20 ml of LB medium in a 100-ml baffle flask was inoculated with a cryoculture of the corresponding strain. The culture was cultured overnight at 37° C. with shaking at 200 rpm and was used on the next day, to inoculate an identical main culture to an OD of 0.2. The main cultures (each 30 mL of LB medium) were then incubated further under the same conditions. At an OD of 0.4 to 0.5, the main culture was covered in each case with equal volumes (30 ml) of solvent and was then incubated further.
For determination of the number of CFUs (colony-forming units), in the next tests 0.1-ml samples were taken and were diluted in sterile 0.9% NaCl solution. Suitable dilution steps were plated out on LB-agar plates. After incubation at 34° C. overnight, the colonies that had formed were counted and the CFUs were determined.
In this case two different concentrations of oleic acid were used and the volume was adjusted by adding the corresponding amount of LAME (lauric acid methyl ester).
In this case various amounts of an unsaturated fatty acid were compared with an unsaturated fatty acid with respect to their toxicity when used as liquid cation exchanger. […] The volumes of the various cation exchangers were compared with LAME. The number of CFUs was determined at the start, after 4.5 h and after 24 h.

E. coli W3110 [2] = assay: CFU determination, lowering ALAME toxicity by contacting with a liquid cation exchanger (Example 3); assay type: cell-based; details: ALAME 0.2% (w/v) dissolved in aqueous systems
[3] = system: ALA and ALAME producing E. coli strain BL21 (DE3) T1r pBT10 pACYC:Duet[TAcv]; assay: Oxygen transfer rate (OTR) during biotransformation with various ion exchangers (Example 4); assay type: cell-based; details: 150 mL lauric acid methyl ester with ion exchanger (10% w/w) added to the fermentation broth
Description: The biotransformation of lauric acid methyl ester to aminolauric acid methyl ester was tested in the 8-fold parallel fermentation system of DasGip with various ion exchangers.
1 L reactors were used for the fermentation. The pH probes were calibrated by means of a two-point calibration with standard solutions of pH 4.0 and pH 7.0. The reactors were filled with 300 mL water and were autoclaved for 20 min at 121° C., to ensure sterility. Then the pO2 probes were polarized overnight (for at least 6 h). On the next morning, the water was removed under the clean bench and was replaced with high-cell-density medium with 50 mg/L kanamycin and 34 mg/L chloramphenicol. Next the pO2 probes were calibrated with a single-point calibration (stirrer: 600 rpm/gassing: 10 sL/h air) and the feed, correcting-agent and induction-agent sections were cleaned by Clean-in-Place. For this, the hoses were rinsed with 70% ethanol, then with 1 M NaOH, then with sterile deionized water and finally were filled with the respective media.
The ALA and ALAME producing E. coli strain BL21 (DE3) T1r pBT10 pACYC:Duet[TAcv] was first grown from cryoculture in LB medium (25 mL in a 100 mL baffle flask) with 50 mg/L kanamycin and 34 mg/L chloramphenicol overnight at 37° C. and 200 rpm for approx. 18 h.
The 3 cultures were combined in a shaking flask and the optical density was determined as 7.2. For inoculating the reactors at an optical density of 0.1, in each case 4.2 mL was taken up in a 5 mL syringe and the reactors were inoculated by cannula through a septum.
The experiment carried out can be divided into two phases, growing, in which the cells are to reach a specified optical density, and the subsequent biotransformation, in which the expression of the genes necessary for the biotechnological processes of production of ALAME was induced. The pH values were adjusted on one side with ammonia (12.5%) to pH 6.8. During growing and biotransformation, the dissolved oxygen (DO) in the culture was controlled at 30% by means of the stirrer rotary speed and the gassing rate. Fermentation was carried out as fed batch, wherein feed start, 5 g/Lh glucose feed (500 g/L glucose with 1% MgSO4*7H2O and 2.2% NH4Cl), was triggered by a DO peak. […] Expression of transaminase was induced 2 h after feed start by the automatic addition of IPTG (1 mM). Induction of the alk-genes was effected by manual addition of DCPK (0.025% v/v) 10 h after feed start. The optical density of the culture broths was determined before the start of biotransformation.
The biotransformation phase started 14 h after feed start. For this, 150 mL of a mixture of lauric acid methyl ester and the respective ion exchanger (10% w/w) were added as batch to the fermentation broth. Di(2-ethylhexyl-)phosphoric acid (DEHPA), lauric acid, oleic acid, palmitic acid, palmitoleic acid, stearic acid and a mixture of free fatty acids from the saponification of globe thistle oil were used as ion exchangers. In order to make an amino group donor available for the transaminase, 10.7 mL of an alanine solution (125 g/L) was added to the fermentation broth simultaneously with addition of the organic phase. For sampling, 2 mL of fermentation broth was taken from the vessel and a portion of this was diluted 1/20 in an acetone-HCl mixture (c(HCl)=0.1 mol/L) and extracted. Samples were taken from all 8 reactors at 1.25 h, 3 h, 5 h, 20 h, 22 h and […] after the start of biotransformation. The oxygen transfer rate (OTR) and carbon transfer rate (CTR) were determined during the fermentation by exhaust gas analysis on the DasGip systems. The fermentation was ended 22 h after the start of biotransformation.

E. coli W3110 [4] = assay: CFU determination, toxicity of the solvent LAME (Example 1)
Description: Before the determination of CFUs could be undertaken, an LB plate (10 g/L peptone from casein, 5 g/L yeast extract, 10 g/L NaCl) was streaked with E. coli BW3110 and incubated for 24 h. In the evening of the next day, a preculture of this previously streaked plate was inoculated. […] On the next day the preculture with an OD600 of 0.2 was inoculated in 200 mL of M9 medium (Na2HPO4 6.79 g/L; KH2PO4 3.0 g/L; NaCl 0.5 g/L; NH4Cl 1 g/L; 1 mL/L trace element solution, pH 7.4. Trace element solution: HCl 37% (=455.8 g/L) 36.50 g/L; MnCl2*7H2O 1.91 g/L; ZnSO4*7H2O 1.87 g/L; Na-EDTA*2H2O (Titriplex III) 0.84 g/L; H3BO3 0.30 g/L; Na2MoO4*2H2O 0.25 g/L; CaCl2*2H2O 4.70 g/L; FeSO4*7H2O 17.80 g/L; CuCl2*2H2O 0.15 g/L) with 3% glucose (w/v) and incubated for approx. 20 h. After incubation of the main culture, the cells were harvested, centrifuged at 5258 g and 4° C. for 10 min and, with an OD600 of 30, were resuspended in 10 mL of 50 mM Kpi buffer at pH 7.4 (or 25 mM HEPES buffer pH 7.4, when CFU determinations with ALAME were carried out). Both buffer solutions used contained 5% glucose (w/v). Then the bacterial suspension was transferred to the shaking flasks and the solutions of the respective substances were added. After mixing by swirling the flask, 100 μL of the suspension was withdrawn by pipette and put into 900 μL of prepared sterile saline. This corresponded to sampling at time point t0. The mixtures were then incubated at 250 rpm and 30° C. The CFUs were determined over a period of 22 h. First the samples were taken at time points t0, t3, t6 and t22. For some mixtures another sampling time point t1.5 was added and furthermore another additional dilution series was plated out, in order to minimize deviations.
The OD600 was 60. The cells were resuspended in 10 mL Kpi buffer and then mixed in the flask with 5 mL LAME 98% (w/w). One dilution step per assay was plated out.

SMILES	Number of CFUs after 22 or 24 h relative to t = 0 h (E. coli BL21(DE3)) [%]	course of the OTR after addition of the ion exchanger [3]	toxicity to cells concluded from the OTR [3]	other results
CCCCC(CC)C(=O)O (stereo not drawn) [2-Ethylhexanoic acid]	0			Number of CFUs after 22 or 24 h relative to t = 0 h (E. coli W3110 [1]): 0%
COC(=O)CCCCCCCCCCCN [ALAME, 12-aminolauric acid methyl ester]				action on bacteria (E. coli W3110 [2]): bactericidal action
CCCCC(CC)COP(=O)(O)OCC(CC)CCCC (stereo not drawn) [DEHPA, di(2-ethylhexyl)phosphoric acid, reference compound]	0	drops to 0 within a short time	highly toxic to cells	
CC(C)CCCCCC(=O)O [Isononanoic acid]	0			Number of CFUs after 22 or 24 h relative to t = 0 h (E. coli W3110 [1]): 0%
CCCCCCCCCCCC(=O)OC [LAME, lauric acid methyl ester]				tolerance by the strains used (E. coli BL21(DE3); preliminary tests): tolerated well; percentage drop in the live cell count (E. coli W3110 [4]; 5 mL LAME 98% (w/w) with cells in 10 mL Kpi buffer, OD600 60, after 22 h): 30.3%; number of CFU/mL (E. coli W3110 [4]; 5 mL LAME 98% (w/w) with cells in 10 mL Kpi buffer, OD600 60, over a period of 6 h): remained constant; toxicity of LAME with respect to biotechnologically relevant microorganisms (E. coli W3110 [4]; compared with potassium phosphate buffer (Kpi) as negative control): does not have toxic action; also recorded: relatively low toxicity
CCCCCCCCCCCC(=O)O [Lauric acid]	1.2	intrusion of the OTR, but it is less pronounced	far less toxic than DEHPA	
CCCCCCCC/C=C\CCCCCCCC(=O)O [oleic acid]			even lower toxicity than the saturated fatty acids	
CCCCCCCCCCCCCCCC(=O)O [palmitic acid]		much shallower	far less toxic	
CCCCCC/C=C\CCCCCCCC(=O)O [palmitoleic acid]			even lower toxicity than the saturated fatty acids	
CCCCCCCCCCCCCCCCCC(=O)O [stearic acid]		much shallower	far less toxic	

From patent US9315443B2, “Liquid cation exchanger” (priority 2011, dated 2016)
